# Test results from patent US6737383B1, “Herbicidal oxadiazolidines” (priority 1999, dated 2004).
# Experiments:
# giant foxtail = test: Test B pre/postemergence giant foxtail; type: in vivo, Setaria faberii
# Outline: (§1)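 Test chemicals in a non-phytotoxic solvent mixture with surfactant were sprayed preemergence onto planted seeds and postemergence onto plants 2 to 18 cm tall (1- to 4-leaf stage). After twelve to sixteen days in a greenhouse, injury was visually rated against untreated controls from 0 (no effect) to 10 (complete control).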
# purple nutsedge = test: Test B pre/postemergence purple nutsedge; type: in vivo, Cyperus rotundus
# Outline: as §1
# surinam grass = test: Test B pre/postemergence surinam grass; type: in vivo, Brachiaria decumbens
# Outline: as §1
# soybean = test: Test B pre/postemergence soybean; type: in vivo, Glycine max
# Outline: as §1
# crabgrass = test: Test B pre/postemergence crabgrass; type: in vivo, Digitaria sanguinalis
# Outline: as §1
# smallflower flatsedge = test: Test B flood test smallflower flatsedge; type: in vivo, Cyperus difformis
# Outline: (§2)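 Read-out is a visual response score from 0 (no effect) to 10 (complete control), assigned by comparison with untreated controls. Treatment was applied at the 2-leaf stage, and plants stayed in the greenhouse for twelve to sixteen days before scoring.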
# morningglory = test: Test B pre/postemergence morningglory; type: in vivo, Ipomoea hederacea
# Outline: as §1
# cocklebur = test: Test B pre/postemergence cocklebur; type: in vivo, Xanthium strumarium
# Outline: as §1
# pigweed = test: Test B pre/postemergence pigweed; type: in vivo, Amaranthus retroflexus; conditions: for Redroot pigweed plant response rating: Postemergence; for Plant response rating, Redroot pigweed: Preemergence
# Outline: as §1
# rape = test: Test B pre/postemergence rape; type: in vivo, Brassica napus
# Outline: as §1
# bamyardgrass = test: Test B flood test barnyardgrass; type: in vivo, Echinochloa crus-galli
# Outline: as §2
# wild oat = test: Test B pre/postemergence wild oat; type: in vivo, Avena fatua
# Outline: as §1
# corn = test: Test B pre/postemergence corn; type: in vivo, Zea mays
# Outline: as §1
# sugar beet = test: Test B pre/postemergence sugar beet; type: in vivo, Beta vulgaris
# Outline: as §1
# velvetleaf = test: Test B pre/postemergence velvetleaf; type: in vivo, Abutilon theophrasti
# Outline: as §1
# blackgrass = test: Test B pre/postemergence blackgrass; type: in vivo, Alopecurus myosuroides
# Outline: as §1
# [1] = Postemergence, Rate 62 g/ha, scale 0 to 10, 0 is no effect, 10 is complete control
# [2] = Postemergence, Rate 250 g/ha, scale 0 to 10, 0 no effect, 10 complete control
# [3] = Preemergence, Rate 62 g/ha, scale 0 to 10, 0 is no effect, 10 is complete control
# [4] = Preemergence, Rate 125 g/ha, scale 0 to 10 (0 no effect, 10 complete control)
# [5] = Preemergence, Rate 250 g/ha, scale of 0 to 10 where 0 is no effect and 10 is complete control
# [6] = Preemergence, Rate 500 g/ha, scale 0 (no effect) to 10 (complete control)
# [7] = Rate 125 g/ha, Postemergence, scale 0 to 10, 0 no effect, 10 complete control
# [8] = Rate 500 g/ha, Postemergence, 0 to 10 scale (0 no effect, 10 complete control)
# [9] = Rate 125 g/ha, Postemergence section (flood test species), scale 0 to 10, 0 no effect, 10 complete control
# [10] = flood test, listed under Postemergence, Rate 250 g/ha, scale 0 to 10, 0 no effect, 10 complete control
# [11] = Rate 62 g/ha, scale 0 to 10, 0 is no effect, 10 is complete control
smiles,measurement,setting,value
CC(C)N(C(=O)n1oc(=O)n(-c2c(Cl)cccc2Cl)c1=O)c1ccc(F)cc1 [Compound 19],Giant foxtail plant response rating,giant foxtail; [1],0
same,Giant foxtail plant response rating,giant foxtail; [2],0
same,"Plant response rating, Giant foxtail",giant foxtail; [3],0
same,"Plant response rating, Giant foxtail",giant foxtail; [4],2
same,"Plant response rating, Giant foxtail",giant foxtail; [5],4
same,Giant foxtail plant response rating,giant foxtail; [6],5
same,Giant foxtail plant response rating,giant foxtail; [7],0
same,Giant foxtail plant response rating,giant foxtail; [8],1
same,Nutsedge plant response rating,purple nutsedge; [1],0
same,Nutsedge plant response rating,purple nutsedge; [2],0
same,"Plant response rating, Nutsedge",purple nutsedge; [3],0
same,"Plant response rating, Nutsedge",purple nutsedge; [4],0
same,"Plant response rating, Nutsedge",purple nutsedge; [5],0
same,Nutsedge plant response rating,purple nutsedge; [6],0
same,Nutsedge plant response rating,purple nutsedge; [7],0
same,Nutsedge plant response rating,purple nutsedge; [8],0
same,B. signalgrass plant response rating,surinam grass; [1],0
same,B. signalgrass plant response rating,surinam grass; [2],0
same,"Plant response rating, B. signalgrass",surinam grass; [3],0
same,"Plant response rating, B. signalgrass",surinam grass; [4],2
same,"Plant response rating, B. signalgrass",surinam grass; [5],2
same,B. signalgrass plant response rating,surinam grass; [6],2
same,B. signalgrass plant response rating,surinam grass; [7],0
same,B. signalgrass plant response rating,surinam grass; [8],0
same,Soybean plant response rating,soybean; [1],2
same,Soybean plant response rating,soybean; [2],3
same,"Plant response rating, Soybean",soybean; [3],0
same,"Plant response rating, Soybean",soybean; [4],0
same,"Plant response rating, Soybean",soybean; [5],0
same,Soybean plant response rating,soybean; [6],0
same,Soybean plant response rating,soybean; [7],3
same,Crabgrass plant response rating,crabgrass; [1],0
same,Crabgrass plant response rating,crabgrass; [2],0
same,"Plant response rating, Crabgrass",crabgrass; [3],3
same,"Plant response rating, Crabgrass",crabgrass; [4],5
same,"Plant response rating, Crabgrass",crabgrass; [5],7
same,Crabgrass plant response rating,crabgrass; [6],10
same,Crabgrass plant response rating,crabgrass; [7],0
same,S. Flatsedge plant response rating,smallflower flatsedge; [1],0
same,S. Flatsedge plant response rating,smallflower flatsedge; [9],0
same,S. Flatsedge plant response rating,smallflower flatsedge; [10],0
same,Morningglory plant response rating,morningglory; [1],0
same,Morningglory plant response rating,morningglory; [2],0
same,"Plant response rating, Morningglory",morningglory; [3],0
same,"Plant response rating, Morningglory",morningglory; [4],0
same,"Plant response rating, Morningglory",morningglory; [5],0
same,Morningglory plant response rating,morningglory; [6],0
same,Morningglory plant response rating,morningglory; [7],0
same,Morningglory plant response rating,morningglory; [8],2
same,Cocklebur plant response rating,cocklebur; [1],0
same,Cocklebur plant response rating,cocklebur; [2],0
same,"Plant response rating, Cocklebur",cocklebur; [3],0
same,"Plant response rating, Cocklebur",cocklebur; [5],0
same,Cocklebur plant response rating,cocklebur; [6],0
same,Cocklebur plant response rating,cocklebur; [7],0
same,Cocklebur plant response rating,cocklebur; [8],0
same,Redroot pigweed plant response rating,pigweed; [11],0
same,Redroot pigweed plant response rating,"pigweed; Rate 250 g/ha, scale 0 to 10, 0 no effect, 10 complete control",2
same,"Plant response rating, Redroot pigweed",pigweed; [11],0
same,"Plant response rating, Redroot pigweed","pigweed; Rate 125 g/ha, scale 0 to 10 (0 no effect, 10 complete control)",0
same,"Plant response rating, Redroot pigweed","pigweed; Rate 250 g/ha, scale of 0 to 10 where 0 is no effect and 10 is complete control",2
same,Redroot pigweed plant response rating,"pigweed; Rate 125 g/ha, scale 0 to 10, 0 no effect, 10 complete control",0
same,Redroot pigweed plant response rating,"pigweed; Rate 500 g/ha, 0 to 10 scale (0 no effect, 10 complete control)",5
same,Rape plant response rating,rape; [1],0
same,Rape plant response rating,rape; [2],0
same,"Plant response rating, Rape",rape; [3],0
same,"Plant response rating, Rape",rape; [4],0
same,"Plant response rating, Rape",rape; [5],0
same,Rape plant response rating,rape; [6],3
same,Rape plant response rating,rape; [7],0
same,Rape plant response rating,rape; [8],0
same,Barnyardgrass plant response rating,bamyardgrass; [1],0
same,Barnyardgrass plant response rating,bamyardgrass; [9],0
same,Barnyardgrass plant response rating,"bamyardgrass; Rate 500 g/ha, Postemergence section of Table B, 0 to 10 scale (0 no effect, 10 complete control)",0
same,Barnyardgrass plant response rating,bamyardgrass; [10],0
same,Wild oats plant response rating,wild oat; [1],0
same,Wild oats plant response rating,wild oat; [2],0
same,"Plant response rating, Wild oats",wild oat; [4],0
same,"Plant response rating, Wild oats",wild oat; [5],0
same,Wild oats plant response rating,wild oat; [6],0
same,Wild oats plant response rating,wild oat; [7],0
same,Corn plant response rating,corn; [1],0
same,Corn plant response rating,corn; [2],0
same,"Plant response rating, Corn",corn; [3],0
same,"Plant response rating, Corn",corn; [4],0
same,"Plant response rating, Corn",corn; [5],0
same,Corn plant response rating,corn; [6],0
same,Corn plant response rating,corn; [7],0
same,Corn plant response rating,corn; [8],0
same,Sugarbeets plant response rating,sugar beet; [1],0
same,Sugarbeets plant response rating,sugar beet; [2],0
same,"Plant response rating, Sugarbeets",sugar beet; [3],0
same,"Plant response rating, Sugarbeets",sugar beet; [4],0
same,"Plant response rating, Sugarbeets",sugar beet; [5],1
same,Sugarbeets plant response rating,sugar beet; [6],2
same,Sugarbeets plant response rating,sugar beet; [7],0
same,Velvetleaf plant response rating,velvetleaf; [1],0
same,Velvetleaf plant response rating,velvetleaf; [2],0
same,"Plant response rating, Velvetleaf",velvetleaf; [3],0
same,"Plant response rating, Velvetleaf",velvetleaf; [4],0
same,"Plant response rating, Velvetleaf",velvetleaf; [5],0
same,Velvetleaf plant response rating,velvetleaf; [6],0
same,Velvetleaf plant response rating,velvetleaf; [7],0
same,Blackgrass plant response rating,blackgrass; [1],0
same,Blackgrass plant response rating,blackgrass; [2],0
same,"Plant response rating, Blackgrass",blackgrass; [3],0
same,"Plant response rating, Blackgrass",blackgrass; [4],2
same,"Plant response rating, Blackgrass",blackgrass; [5],2
same,Blackgrass plant response rating,blackgrass; [6],3
same,Blackgrass plant response rating,blackgrass; [7],0
same,Blackgrass plant response rating,blackgrass; [8],2
